According to the PolyMetriX glass transition set:
Where a name gives a salt, the structure may show the parent alone. ± gives the standard deviation of the reports.

Row | Structure (SMILES) | glass transition temperature [°C]
1 | *Oc1cc(Cl)c(C(C)(C)c2c(Cl)cc(OC(*)=O)cc2Cl)c(Cl)c1 (repeat unit) | 240.00
2 | *Oc1ccc(CC(NC(=O)CCc2ccc(OC(=O)CCCCCCC(*)=O)cc2)C(=O)OCCCCCCCCCCCC)cc1 (repeat unit) | 15.00
3 | */C=C(/*)C(CCC)[Si](C)(C)c1ccccc1 (repeat unit) | 110.00
4 | *OP(=O)(Oc1ccccc1)Oc1c(C)cc(S(=O)(=O)c2cc(C)c(*)c(C)c2)cc1C (repeat unit) | 142.00
5 | *CCCCCCOC(=O)c1cc(OCCCCCCOc2ccc(/N=N/c3ccc(C#N)cc3)cc2)cc(C(=O)OCCCCCCn2c(=O)c3cc4c(=O)n(*)c(=O)c4cc3c2=O)c1 (repeat unit) | 46.00
6 | *CCOCCOCCOC(=O)c1cc(/N=N/c2ccc(OCC)cc2)ccc1-c1ccc(/N=N/c2ccc(OCC)cc2)cc1C(=O)O* (repeat unit) | 65.00
7 | *Cc1ccc(C(C)(C)c2ccc(CN3C(=O)c4ccc(Oc5ccc6c(c5)C(=O)N(*)C6=O)cc4C3=O)o2)o1 (repeat unit) | 116.00
8 | *CCCCOc1cccc(C(=O)OC(=O)c2cccc(O*)c2)c1 (repeat unit) | 20.00
9 | *CC(*)(C)C(=O)OCCN(C)c1ccc(/C=C/c2ccc([N+](=O)[O-])cc2)cc1 (repeat unit) | 107.00
10 | *C(=O)Nc1cccc(NC(=O)c2ccc3c(c2)C(=O)N(c2ccc(Oc4cccc5c(N6C(=O)c7ccc(*)cc7C6=O)cccc45)cc2)C3=O)n1 (repeat unit) | 293.00
11 | *c1ccc(N2C(=O)c3ccc(C(c4ccc5c(c4)C(=O)N(c4ccc(N6C(=O)c7ccc(-c8ccc9c(c8)C(=O)N(*)C9=O)cc7C6=O)cc4)C5=O)(C(F)(F)F)C(F)(F)F)cc3C2=O)cc1 (repeat unit) | 342.00
12 | *Oc1cccc(Oc2cccc(*)c2)c1C#N (repeat unit) | 145.00
13 | *c1ccc2c(c1)C(CCCCCC)(CCCCCC)c1cc(*)ccc1-2 (repeat unit) | 102.50 ± 2.1
14 | *O[Si](c1ccccc1)(c1ccccc1)c1ccc([Si](*)(c2ccccc2)c2ccccc2)cc1 (repeat unit) | 130.00
15 | *C(=O)c1cccc(C(=O)N(*)c2ccccc2)c1 (repeat unit) | 148.00
16 | *Oc1ccc(OC(=O)c2ccc(C(*)=O)cc2Oc2ccc(Oc3ccccc3)cc2)cc1 (repeat unit) | 83.00
17 | *Oc1ccc(S(=O)(=O)c2ccc(Oc3ccc(C(=O)c4cccc(C(=O)c5ccc(*)cc5)c4)cc3)cc2)cc1 (repeat unit) | 178.00
18 | *C1C(*)C2CC1C1C=CCC12 (repeat unit) | 145.00
19 | *C(=O)Nc1ccc(NC(=O)c2ccc3c(c2)C(=O)N(c2cc(-c4nc5ccccc5s4)cc(N4C(=O)c5ccc(*)cc5C4=O)c2)C3=O)cc1 (repeat unit) | 356.00
20 | *Oc1ccc(C(C)(C)c2ccc(OC(=O)OCCN(CCOC(*)=O)c3ccccc3)cc2)cc1 (repeat unit) | 70.00
21 | *c1cccc(N2C(=O)c3ccc(Oc4ccc(Oc5ccc6c(c5)C(=O)N(*)C6=O)cc4)cc3C2=O)c1 (repeat unit) | 255.00
22 | *Oc1ccc(NC(=O)c2ccc3cc(C(=O)Nc4ccc(Oc5ccc(C6(c7ccc(*)cc7)CC7CCC6C7)cc5)cc4)ccc3c2)cc1 (repeat unit) | 276.00

Row | Structure (SMILES) | glass transition temperature [°C]
23 | *CCCCCCOc1ccc(/C=C/c2ccc(O*)cc2)cc1 (repeat unit) | 76.00
24 | *C(=O)c1ccc(Oc2ccc(-c3ccc(Oc4ccc(C(=O)c5ccc6c(c5)C(=O)N(c5ccc(Cc7ccc(N8C(=O)c9ccc(*)cc9C8=O)cc7)cc5)C6=O)cc4)cc3)cc2)cc1 (repeat unit) | 241.00
25 | *CC(=O)Nc1cccc2c(NC(=O)COc3ccc4ccccc4c3Sc3c(O*)ccc4ccccc34)cccc12 (repeat unit) | 264.00
26 | *c1ccc2c(c1)C(=O)N(c1c(C)c(C)c(N3C(=O)c4ccc(C(*)(C(F)(F)F)C(F)(F)F)cc4C3=O)c(C)c1C)C2=O (repeat unit) | 420.00
27 | *CC(*)c1ccccc1C(=O)OCCC (repeat unit) | 108.00
28 | *Oc1ccc(C(c2ccccc2)c2ccc(OC(*)=S)cc2)cc1 (repeat unit) | 179.00
29 | *c1ccc(Cc2ccc(S(*)(=O)=O)cc2)cc1 (repeat unit) | 227.50
30 | *Oc1ccc2c(c1)C1(CC2(C)C)CC(C)(C)c2ccc(OC(*)=O)cc21 (repeat unit) | 228.00
31 | *CC(=O)Nc1ccc(C2(c3ccc(NC(=O)c4ccc5c(c4)C(=O)N(*)C5=O)cc3)c3ccccc3-c3ccccc32)cc1 (repeat unit) | 345.00
32 | */C=C/C1CC(*)C2C(=O)N(CCCCC)C(=O)C12 (repeat unit) | 99.00
33 | *CCCOC(=O)OCCCCCCOC(=O)OCCCN1C(=O)c2ccc(C(=O)c3ccc4c(c3)C(=O)N(*)C4=O)cc2C1=O (repeat unit) | 70.00
34 | *CCCCCCCCOc1cccc(NC(=O)c2ccc(C(=O)Nc3cccc(O*)c3)cc2)c1 (repeat unit) | 122.00
35 | *OCCOC(=O)c1cc(/N=N/c2ccc(OCC)cc2)ccc1-c1ccc(/N=N/c2ccc(OCC)cc2)cc1C(=O)OCCOc1nc(-c2ccc(OCCCC)cc2)nc(*)c1-c1ccc(OC)cc1 (repeat unit) | 126.00
36 | *CCCCCCn1ccc(-c2cccc(-c3ccn(*)n3)c2)n1 (repeat unit) | 70.00
37 | *c1ccc(Oc2ccc(N3C(=O)N4C(c5ccc(OC)cc5)N(*)C(=O)N4C3c3ccc(OC)cc3)cc2)cc1 (repeat unit) | 163.00
38 | *C(=O)CCCCCCCCC(=O)N1CCN(*)CC1 (repeat unit) | 82.00
39 | *c1cc(C(c2ccc(OCCN(CC)c3ccc(/C=C/C4=CC(=C(C#N)C#N)CC(C)(C)C4)cc3)c(N3C(=O)c4ccc(Oc5ccc6c(c5)C(=O)N(*)C6=O)cc4C3=O)c2)(C(F)(F)F)C(F)(F)F)ccc1OCCN(CC)c1ccc(/C=C/C2=CC(=C(C#N)C#N)CC(C)(C)C2)cc1 (repeat unit) | 202.00
40 | *c1ccc(Oc2ccc(C(c3ccc(Oc4ccc(-c5nnc(*)n5-c5ccc(S(C)(=O)=O)cc5)cc4)cc3)(C(F)(F)F)C(F)(F)F)cc2)cc1 (repeat unit) | 226.00
41 | */C=C/CCCC(Cl)CCC* (repeat unit) | -63.00
42 | *CC(F)(F)C(F)(F)C(F)(F)COC(=O)c1cc(OCCCCC)cc(C(=O)O*)c1 (repeat unit) | -30.00
43 | *CCCCCCCCCCOC(=O)c1ccc(-c2ccc(-c3ccc(C(=O)O*)cc3)cc2)cc1 (repeat unit) | 50.00
44 | *c1ccc(-c2ccc(-c3ccc(-c4ccc(*)n4CCCCCCCCCCCC)s3)s2)s1 (repeat unit) | 52.00

Row | Structure (SMILES) | glass transition temperature [°C]
45 | *CC(*)OC(=O)C(F)(F)F (repeat unit) [Poly(vinyl trifluoroacetate) ] | 46 ± 5.6
46 | *OP(=O)(Oc1c(Cl)cc(Cl)cc1Cl)Oc1c(Cl)c(Cl)c(*)c(Cl)c1Cl (repeat unit) | 127.00
47 | *CCCCCCCC(=O)OC1COC(*)OC1 (repeat unit) | 6.50
48 | *CC/C=C(/*)CCCCCCCCCC (repeat unit) | -53.00
49 | *Oc1cccc2ccc(Oc3ccc(NC(=O)c4cc(C(=O)Nc5ccc(*)cc5)cc(C(C)(C)C)c4)cc3)cc12 (repeat unit) | 263.00
50 | *C(=O)Nc1ccc(S(=O)(=O)c2ccc(NC(=O)c3ccc4c(c3)C(=O)N(c3ccc(-c5sc(-c6ccc(N7C(=O)c8ccc(*)cc8C7=O)cc6)c(-c6ccccc6)c5-c5ccccc5)cc3)C4=O)cc2)cc1 (repeat unit) | 340.00
51 | *CCCCCCCCOc1ccc(/C=C2\CCC/C(=C\c3ccc(O*)cc3)C2=O)cc1 (repeat unit) | 90.00
52 | *CC(*)C(=O)OCCCCC (repeat unit) | -57.00
53 | *c1cc(N2C(=O)c3ccc(Oc4ccc5c(c4)C(=O)N(*)C5=O)cc3C2=O)c(O)cc1O (repeat unit) | 263.00
54 | *CC(*)(C)C(=O)OCCC (repeat unit) [Poly(n-propyl methacrylate) ] | 35 ± 5.4
55 | *c1cc(Br)c(-c2c(Br)cc(N3C(=O)c4ccc(-c5ccc6c(c5)C(=O)N(*)C6=O)cc4C3=O)cc2C(=O)OCCCC)c(C(=O)OCCCC)c1 (repeat unit) | 196.00
56 | *CC(*)c1ccccc1OC(C)=O (repeat unit) | 118.00
57 | *c1ccc(C2(c3ccc(N4C(=O)c5ccc(Oc6ccc7c(c6)C(=O)N(*)C7=O)cc5C4=O)cc3)c3ccccc3-c3ccccc32)cc1 (repeat unit) | 373.00
58 | *c1ccc(C(=O)OCCCCCCCCCCOc2ccc(/C=C3\CCCC/C(=C\c4ccc(OCCCCCCCCCCOC(=O)c5ccc(-c6nnc(*)o6)cc5)cc4)C3=O)cc2)cc1 (repeat unit) | 74.00
59 | *Nc1cc(NC(=O)CCCCCCCCC(*)=O)cc(-c2nnc(-c3ccccn3)o2)c1 (repeat unit) | 85.00
60 | *c1ccc(Oc2ccc(Oc3ccc(Oc4ccc(-c5nc6ccc(-c7ccc8nc(*)c(-c9ccccc9)nc8c7)cc6nc5-c5ccccc5)cc4)cc3)cc2)cc1 (repeat unit) | 263.00
61 | *CCOc1ccc(/C=C2\CC/C(=C\c3ccc(OCCOP(=O)(O*)OC)c(OC)c3)C2=O)cc1OC (repeat unit) | 99.00
62 | *Oc1ccc(C2(c3ccc(OC(=O)CCC(*)=O)cc3)c3cc(N(C)C)ccc3-c3ccc([N+](=O)[O-])cc32)cc1 (repeat unit) | 215.00
63 | *C(=O)c1ccc2c(c1)C(=O)N(c1ccc(C(c3ccccc3)c3ccc(N4C(=O)c5ccc(*)cc5C4=O)cc3)cc1)C2=O (repeat unit) | 282.00
64 | *CC(O)COc1ccc(C(C)(C)c2ccc(OCC(O)COc3ccc(NC(=O)CCCCC(=O)Nc4ccc(O*)cc4)cc3)cc2)cc1 (repeat unit) | 112.00
